Measurements: patent US10730889B2, “Amido spirocyclic amide and sulfonamide derivatives” (Forma TM, LLC, priority 2012, dated 2020)
pIC50: −log10 of the molar value.

System: A2780 cells
Assay: In-vitro cell proliferation assay (SRB, 72 hours)
Type: cell-based
Settings: Homo sapiens, A2780, 72 h, A2780 cells, 72 hours, SRB; read-out: Cell Proliferation (IC50)

| Structure (SMILES) | pIC50 |
| --- | --- |
| Cc1cc(C)n(CC(=O)N2CCC3(CC2)CC3CNC(=O)c2cc3ccncc3o2)n1 (centres unmarked) [Example 67, N-[[6-[2-(3,5-dimethylpyrazol-1-yl)acetyl]-6-azaspiro[2.5]octan-2-yl]methyl]furo[2,3-c]pyridine-2-carboxamidc] | 6.71 |
| CS(=O)(=O)c1ccccc1C(=O)N1CCC2(CC1)CC2CNC(=O)c1cc2ccncc2o1 (centres unmarked) [Example 69, N-[[6-(2-methylsulfonylbenzoyl)-6-azaspiro[2.5]octan-2-yl]methyl]furo[2,3-c]pyridine-2-carboxamide] | 6.71 |
| O=C(NCC1CC12CCN(C(=O)c1cccc(-n3cnnc3)c1)CC2)c1cc2ccncc2o1 (centres unmarked) [Example 70, N-[[6-[3-(1,2,4-triazol-4-yl)benzoyl]-6-azaspiro[2.5]octan-2-yl]methyl]furo[2,3-c]pyridine-2-carboxamide] | 6.31 |
| CC(=O)Nc1ccc(C(=O)N2CCC3(CC2)CC3CNC(=O)c2cc3ccncc3o2)cc1 (centres unmarked) [Example 72, N-[[6-(4-acetamidobenzoyl)-6-azaspiro[2.5]octan-2-yl]methyl]furo[2,3-c]pyridine-2-carboxamide] | 7.32 |
| CC(C(=O)N1CCC2(CC1)CC2CNC(=O)c1cc2ccncc2o1)N1CCOCC1 (centres unmarked) [Example 75, N-[[6-(2-morpholinopropanoyl)-6-azaspiro[2.5]octan-2-yl]methyl]furo[2,3-c]pyridine-2-carboxamide] | 7.09 |
| O=C(NCC1CC12CCN(C(=O)CC1NC(=O)c3ccccc31)CC2)c1cc2ccncc2o1 (centres unmarked) [Example 77, N-[[6-[2-(3-oxoisoindolin-1-yl)acetyl]-6-azaspiro[2.5]octan-2-yl]methyl]furo[2,3-c]pyridine-2-carboxamide] | 5.94 |
| NC(=O)N1CCC(C(=O)N2CCC3(CC2)CC3CNC(=O)c2cc3ccncc3o2)CC1 (centres unmarked) [Example 78, N-[[6-(1-carbamoylpiperidme-4-carbonyl)-6-azaspiro[2.5]octan-2-y]methyl]furo(2,3-c]pyridine-2-carboxamide] | 5.70 |
| O=C(NCC1CC12CCN(C(=O)Cn1ccc(=O)[nH]c1=O)CC2)c1cc2ccncc2o1 (centres unmarked) [Example 81, N-[[6-[2-(2,4-dioxopyrimidin-1-yl)acetyl]-6-azaspiro[2.5]octan-2-yl]methyl]furo[2,3-c]pyridine-2-carboxamide] | 5.70 |
| O=C(NCC1CC12CCN(C(=O)c1ccc(Cn3cnnn3)cc1)CC2)c1cc2ccncc2o1 (centres unmarked) [Example 83, N-[[6-[4-(tetrazol-1-ylmethyl)benzoyl]-6-azaspiro[2.5]octan-2-yl]methyl]furo[2,3-c]pyridine-2-carboxamide] | 5.97 |
| CS(=O)(=O)Nc1ccc(C(=O)N2CCC3(CC2)CC3CNC(=O)c2cc3ccncc3o2)cc1 (centres unmarked) [Example 84, N-[[6-[4-(methanesulfonamido)benzoyl]-6-azaspiro[2.5]octan-2-yl]methyl]furo[2,3-c]pyridine-2-carboxamide] | 6.73 |
| O=C(NCC1CC12CCN(C(=O)c1ccc(N3CCS(=O)(=O)CC3)cc1)CC2)c1cc2ccncc2o1 (centres unmarked) [Example 85, N-[[6-[4-(1,1-dioxo-1,4-thiazinan-4-yl)benzoyl]-6-azaspiro[2.5]octan-2-yl)methyl]furo[2,3-c]pyridine-2-carboxamide] | 7.85 |
| CN1CCN(Cc2ccc(C(=O)N3CCC4(CC3)CC4CNC(=O)c3cc4ccncc4o3)cc2)CC1 (centres unmarked) [Example 86, N-[[6-[4-[(4-methylpiperazin-1-yl)methyl]benzoyl]-6-azaspiro[2.5]octan-2-yl]methyl]furo[2,3-c]pyridine-2-carboxamide] | 8.34 |
| CN1CCN(Cc2ccccc2C(=O)N2CCC3(CC2)CC3CNC(=O)c2cc3ccncc3o2)CC1 (centres unmarked) [Example 87, N-[[6-[2-[(4-methylpiperazin-1-yl)methyl]benzoyl]-6-azaspiro[2.5]octan-2-yl]methyl]furo[2,3-c]pyridine-2-carboxamide] | 5.70 |
| CN1CCN(Cc2cccc(C(=O)N3CCC4(CC3)CC4CNC(=O)c3cc4ccncc4o3)c2)CC1 (centres unmarked) [Example 88, N-[[6-[3-[(4-methylpiperazin-1-yl)methyl]benzoyl]-6-azaspiro[2.5]octan-2-yl]methyl]furo[2,3-c]pyridine-2-carboxamide] | 8.01 |
| CC(C)N1CC(C(=O)N2CCC3(CC2)CC3CNC(=O)c2cc3ccncc3o2)CC1=O (centres unmarked) [Example 90, N-[[6-(1-isopropyl-5-oxo-pyrrolidine-3-carbonyl)-6-azaspiro[2.5]octan-2-yl)methyl]furo[2,3-c]pyridine-2-carboxamide] | 6.74 |
| CS(=O)(=O)c1cccc(C(=O)N2CCC3(CC2)CC3CNC(=O)c2cc3ccncc3o2)c1 (centres unmarked) [Example 92, N-[[6-(3-methylsulfonylbenzoyl)-6-azaspiro[2.5]octan-2-yl]methyl]furo[2,3-c]pyridine-2-carboxamide] | 6.82 |
| CS(=O)(=O)c1ccc(C(=O)N2CCC3(CC2)CC3CNC(=O)c2cc3ccncc3o2)cc1 (centres unmarked) [Example 93, N-[[6-(4-methylsulfonylbenzoyl)-6-azaspiro[2.5]octan-2-yl]methyl]furo[2,3-c]pyridine-2-carboxamide] | 6.06 |
| NC(=O)Nc1ccc(C(=O)N2CCC3(CC2)CC3CNC(=O)c2cc3ccncc3o2)cc1 (centres unmarked) [Example 94, N-[[6-(4-ureidobenzoyl)-6-azaspiro[2.5]octan-2-yl]methyl]furo[2,3-c]pyridine-2-carboxamide] | 6.36 |
| CC(=O)N1CCN(CC(=O)N2CCC3(CC2)CC3CNC(=O)c2cc3ccncc3o2)CC1 (centres unmarked) [Example 95, N-[[6-[2-(4-acetylpiperazin-1-yl)acetyl]-6-azaspiro[2.5]octan-2-yl]methyl]furo[2,3-c]pyridine-2-carboxamide] | 5.70 |
| Cc1nnnn1Cc1ccc(C(=O)N2CCC3(CC2)CC3CNC(=O)c2cc3ccncc3o2)cc1 (centres unmarked) [Example 96, N-[[6-[4-[(5-methyltetrazol-1-yl]methyl]benzoyl]-6-azaspiro[2.5]octan-2-yl]methyl]furo[2,3-c]pyridine-2-carboxamide] | 6.15 |
| O=C(NCC1CC12CCN(C(=O)c1ccncc1)CC2)c1cc2ccncc2o1 (centres unmarked) [Example 97, N-[[6-(pyridine-4-carbonyl)-6-azaspiro[2.5]octan-2-yl]methyl]furo[2,3-c]pyridine-2-carboxamide] | 5.70 |
| O=C(NCC1CC12CCN(C(=O)c1ccccn1)CC2)c1cc2ccncc2o1 (centres unmarked) [Example 98, N-[[6-(pyridine-2-carbonyl)-6-azaspiro[2.5]octan-2-yl]methyl]furo[2,3-c]pyridine-2-carboxamide] | 5.70 |
| O=C(NCC1CC12CCN(C(=O)c1cocn1)CC2)c1cc2ccncc2o1 (centres unmarked) [Example 99, N-[[6-(oxazole-4-carbonyl)-6-azaspiro[2.5]octan-2-yl]methyl]furo[2,3-c]pyridine-2-carboxamide] | 5.70 |
| O=C(NCC1CC12CCN(C(=O)c1nc[nH]n1)CC2)c1cc2ccncc2o1 (centres unmarked) [Example 100, N-[[6-(1H-1,2,4-triazole-3-carbonyl)-6-azaspiro[2.5]octan-2-yl]methyl]furo[2,3-c]pyridine-2-carboxamide] | 5.70 |

Further lines, results first:

| pIC50 | Structure (SMILES) |
| --- | --- |
| 6.03 | O=C(NCC1CC12CCN(C(=O)CCN1CCOCC1)CC2)c1cc2ccncc2o1 (centres unmarked) [Example 65, N-[[6-(3-morpholinopropanoyl)-6-azaspiro[2.5]octan-2-yl]methyl]furo[2,3-c]pyridine-2-carboxamide] |
| 5.70 | O=C(NCC1CC12CCN(C(=O)C1CCS(=O)(=O)C1)CC2)c1cc2ccncc2o1 (centres unmarked) [Example 66, N-[[6-(1,1-dioxothiolane-3-carbonyl)-6-azaspiro[2.5]octan-2-yl]methyl]furo[2,3-c]pyridine-2-carboxamide] |
| 6.38 | CC(=O)N1CCCC1C(=O)N1CCC2(CC1)CC2CNC(=O)c1cc2ccncc2o1 (centres unmarked) [Example 68, N-[[6-(1-acetylpyrrolidine-2-carbonyl)-6-azaspiro[2.5]octan-2-yl]methyl]furo[2,3-c]pyridine-2-carboxamide] |
| 7.59 | CS(=O)(=O)N1CCCC(C(=O)N2CCC3(CC2)CC3CNC(=O)c2cc3ccncc3o2)C1 (centres unmarked) [Example 73, N-[[6-(1-methylsulfonylpiperidine-3-carbonyl)-6-azaspiro[2.5]octan-2-yl]methyl]furo[2,3-c]pyridine-2-carboxamide] |
| 6.77 | CS(=O)(=O)N1CCC(C(=O)N2CCC3(CC2)CC3CNC(=O)c2cc3ccncc3o2)CC1 (centres unmarked) [Example 74, N-[[6-(1-methylsulfonylpiperidine-4-carbonyl)-6-azaspiro[2.5]octan-2-yl]methyl]furo[2,3-c]pyridine-2-carboxamide] |
| 6.64 | CS(=O)(=O)N1CCCC1C(=O)N1CCC2(CC1)CC2CNC(=O)c1cc2ccncc2o1 (centres unmarked) [Example 76, N-[[6-(1-methylsulfonylpyrrolidine-2-carbonyl)-6-azaspiro[2.5]octan-2-yl]methyl]furo[2,3-c]pyridine-2-carboxamide] |
| 5.70 | NC(=O)N1CCCC(C(=O)N2CCC3(CC2)CC3CNC(=O)c2cc3ccncc3o2)C1 (centres unmarked) [Example 79, N-[[6-(1-carbamoylpiperidine-3-carbonyl)-6-azaspiro[2.5]octan-2-yl]methyl]furo[2,3-c]pyridine-2-carboxamide] |
| 5.87 | O=C(NCC1CC12CCN(C(=O)CC1CCS(=O)(=O)C1)CC2)c1cc2ccncc2o1 (centres unmarked) [Example 80, N-[[6-[2-(1,1-dioxothiolan-3-yl)acetyl]-6-azaspiro[2.5]octan-2-yl]methyl]furo[2,3-c]pyridine-2-carboxamide] |
| 6.15 | CC(=O)N1CCC(C(=O)N2CCC3(CC2)CC3CNC(=O)c2cc3ccncc3o2)CC1 (centres unmarked) [Example 82, N-[[6-(1-acetylpiperidine-4-carbonyl)-6-azaspiro[2.5]octan-2-yl]methyl]furo[2,3-c]pyridine-2-carboxamide] |
| 6.94 | CN1CCN(CCC(=O)N2CCC3(CC2)CC3CNC(=O)c2cc3ccncc3o2)CC1 (centres unmarked) [Example 89, N-[[6-[3-(4-methylpiperazin-1-yl)propanoyl]-6-azaspiro[2.5]octan-2-yl]methyl]furo[2,3-c]pyridine-2-carboxamide] |
| 5.70 | O=C1CN(CC(=O)N2CCC3(CC2)CC3CNC(=O)c2cc3ccncc3o2)CCN1 (centres unmarked) [Example 91, N-[[6-[2-(3-oxopiperazin-1-yl)acetyl]-6-azaspiro[2.5]octan-2-yl]methyl]furo[2,3-c]pyridine-2-carboxamide] |
